Test [1] has as its system FVB/NHan mice inoculated with kainate (KA). Put plainly: Neuropathological signs in hippocampus after kainate (MAP2, HNE, T.U.N.E.L., GFAP). Format: in vivo. As to conditions: for neuritic dystrophy (MAP2 labeling) in hippocampus: 50 mg/kg i.p., 7 days. As for the experimental part:
All the animals included for the experimental process were 12-week old males of the FVB/NHan strain. The experiments were conducted strictly following the Guidance on the Operation of Animals (Scientific Procedures, Act. 1986). The animals had their respective quarantine period and were treated with maximum precaution to minimize possible contaminations during inoculations and handling.
Twenty-five animals were used in this assay and the treatments were all conducted by intraperitoneal (i.p.) route with a volume of 100 μl, according to the following regimens: • i) PBS+PBS+PBS regimen: 4 animals were initially treated with PBS with a daily dose for 2 days, on the second day the animals were inoculated with a new dose of PBS and for the next 7 days with a daily dose of PBS. • ii) NST0037+KA+NST0037 regimen: 7 animals were initially treated with a daily dose for 2 days with NST0037 at 50 mg/kg, on the second day the animals were inoculated with a dose of kainate at 25 mg/Kg and for the next 7 days with a daily dose of NST0037 at 50 mg/kg. • iii) PBS+KA+PBS regimen: 7 animals were initially treated with PBS with a daily dose for 2 days, on the second day the animals were inoculated with a dose of kainate at 25 mg/Kg and for the next 7 days with a daily dose of PBS. • iv) PBS+KA+NST0037 regimen: 7 animals were initially treated with PBS with a daily dose for 2 days, on the second day the animals were inoculated with a dose of kainate at 25 mg/Kg and for the next 7 days with a daily dose of NST0037 at 50 mg/kg.
Once the treatment time of 7 days ended, the animals were sacrificed and the brains were dissected. The brain samples were processed and included in paraffin. For the analysis of neuritic dystrophy in the hippocampus, bright field immunochemistry against microtubule associated protein type 2 (MAP2) was performed in 5 μm thick coronal sections.
Once the treatment time of 7 days ended, the animals were sacrificed and the brains were dissected. The brain samples were processed and included in paraffin. For the analysis of oxidative damage due to lipid peroxidation in the hippocampus, bright field immunochemistry against 4-hydroxynonenal (HNE) was performed in 5 μm thick coronal sections.
Once the treatment time of 7 days ended, the animals were sacrificed and the brains were dissected. The brain samples were processed and included in paraffin. For the analysis of the presence of neurons in apoptosis in the hippocampus, the T.U.N.E.L. (TdT-mediated dUTP nick end labeling) fluorescence technique was performed in 5 μm thick coronal sections.
Once the treatment time of 7 days ended, the animals were sacrificed and the brains were dissected. The brain samples were processed and included in paraffin. The analysis of reactive astrogliosis was performed by means of bright field immunochemistry against Glial fibrillary acidic protein (GFAP) in 5 μm thick coronal sections, which protein is present in astrocytes.

Test [2] shares this test system. Put plainly: Neuronal death in the hippocampus of mice caused by kainate (hematoxylin-eosin). In kind it is in vivo. The following applies: 50 mg/kg i.p., 7 days. As for the experimental part: All the animals included for the experimental process were 12-week old males of the FVB/NHan strain. The experiments were conducted strictly following the Guidance on the Operation of Animals (Scientific Procedures, Act. 1986). The animals had their respective quarantine period and were treated with maximum precaution to minimize possible contaminations for inoculations and handling. […]

Another test concerns seladin-1/DHCR24 gene. Nature of the test: seladin-1/DHCR24 gene expression in SK-N-MC cells (real-time quantitative RT-PCR). Format: cell-based, human. As to conditions: 1, 4, 10 or 40 μM, 24 hours. The procedure:
The assay was performed on human neuroblastoma SK-N-MC cells in culture from the American Type Culture Collection (ATCC), in all cases strict rules of sterility were followed and the manipulation was performed in class II biological safety cabinets following European standard EN 12469. The cells were maintained in the following culture medium: Minimum Essential Medium Eagle (MEM) supplemented with 1 mM sodium pyruvate, 2 mM L-glutamine, 0.1 mM non-essential amino acids, 0.05 mg/ml gentamicin and 10% fetal bovine serum.
The expression of the seladin-1/DHCR24 gene (NCBI Reference Sequence: NM_014762.3) was analyzed by means of real-time quantitative RT-PCR in comparison with memantine (a drug normally used to treat Alzheimer's disease). […] The total RNA was extracted by means of the High Pure RNA Isolation kit (Roche) and the amount and quality of the RNA were analyzed by means of spectrophotometry (Infinite 200 with NanoQuant, Tecan) and viewing of the 18S and 28S bands by means of electrophoresis. The RT-PCR was performed by means of two steps, first, the mRNA was changed to cDNA using the RNA to cDNA kit (Applied Biosystem) and the gene expression was subsequently analyzed by means of TaqMan probes using the validated probes Hs00207388_m1 for seladin-1/DHCR24 and Hs99999901_s1 for 18S (used to normalize the results) in the 7500 Fast Real-Time PCR System equipment (Applied Biosystem). […]

The text below walks through data of patent publication US20140309295A1, “ANTIEPILEPTIC, HYPOCHOLESTEROLEMIC AND NEUROPROTECTIVE COMPOUND” (NEURON BIOPHARMA, S.A., priority 2009, published 2014).

Consider `CCC(CC)C(=O)O[C@H]1C[C@@H](C)C=C2C=C[C@H](C)[C@H](CC[C@@H]3C[C@@H](O)CC(=O)O3)[C@H]21` [NST0037, (1S,2S,6R,8S,8aR)-1,2,6,7,8,8a-hexahydro-3,7-dimethyl-8-[2-[(2R,4R)-tetrahydro-4-hydroxy-6-oxo-2H-pyran-2-yl]ethyl]-1-naphthalenyl-2-ethyl-butyrate], for which, in test [1] (NST0037+KA+NST0037 regimen), the “apoptosis (T.U.N.E.L.) in hippocampus” value was “did not show neurons positive for T.U.N.E.L”, the “oxidative damage (HNE labeling) in hippocampus” value was “without HNE-labeled neurons”, the “reactive astrogliosis (GFAP) in hippocampus” value is given as “astrocyte pattern very similar to that of the controls” and the “neuritic dystrophy (MAP2 labeling) in hippocampus” value was “without evidence of neuritic dystrophy”. Further, in test [1] (PBS+KA+NST0037 regimen), the “apoptosis (T.U.N.E.L.) in hippocampus” value is recorded as “reduces the number of neurons in apoptosis to a few isolated cells”; the “oxidative damage (HNE labeling) in hippocampus” value is given as “reduces the number of HNE-labeled neurons”; the “reactive astrogliosis (GFAP) in hippocampus” value was “reduces the number of astrocytes and the intensity of the GFAP labeling”; the “neuritic dystrophy (MAP2 labeling) in hippocampus” value is “clearly reduces the loss of MAP2 labeling”. Moreover, the “neuronal death in hippocampal CA1 and CA2 regions” value in test [2] (NST0037+KA+NST0037 regimen, KA 25 mg/Kg) is “completely protected against neuronal death”. Moreover, in test [2] (PBS+KA+NST0037 regimen (treatment after KA)), the “neuronal death in hippocampal CA1 and CA2 regions” value is “qualitatively reduced neuronal death and damage”. The seladin-1/DHCR24 gene expression result in the test on seladin-1/DHCR24 gene was “increase of seladin-1/DHCR24 gene expression”.
